Results published in article PMC10415349, “Structural basis of agonist specificity of α1A-adrenergic receptor” (Nature Communications, 2023).

Legend:
[1] = molecular target: T1, α1B-AR(A204V, S208A, L314M) (Homo sapiens, UniProt P35368, A204V/L314M/S208A); test: Ca2+ imaging (GCaMP6f) in transfected HEK293T cells; assay type: cell-based
T1 construct: gene ADRA1B
T1 sequence (P35368 1-520 A204V/S208A/L314M): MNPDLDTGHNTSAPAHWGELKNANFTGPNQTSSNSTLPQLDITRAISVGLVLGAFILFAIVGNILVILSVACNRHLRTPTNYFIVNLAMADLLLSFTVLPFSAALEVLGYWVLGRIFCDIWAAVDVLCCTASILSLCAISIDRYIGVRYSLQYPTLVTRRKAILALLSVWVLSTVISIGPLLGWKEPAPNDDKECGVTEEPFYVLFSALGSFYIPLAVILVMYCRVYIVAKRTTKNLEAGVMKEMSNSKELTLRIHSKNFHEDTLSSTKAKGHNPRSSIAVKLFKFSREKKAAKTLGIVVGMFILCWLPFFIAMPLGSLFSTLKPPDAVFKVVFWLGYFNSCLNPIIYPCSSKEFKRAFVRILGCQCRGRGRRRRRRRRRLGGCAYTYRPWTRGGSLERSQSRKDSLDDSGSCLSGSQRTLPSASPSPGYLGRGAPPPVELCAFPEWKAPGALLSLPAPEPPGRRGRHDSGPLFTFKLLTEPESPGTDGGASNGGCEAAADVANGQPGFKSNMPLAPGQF

[2] = molecular target: T2, α1A-AR(V185A, A189S, M292L) (Homo sapiens, UniProt P35348, V185A/A189S/M292L)
T2 construct: gene ADRA1A
T2 sequence (P35348 whole entry V185A/A189S/M292L): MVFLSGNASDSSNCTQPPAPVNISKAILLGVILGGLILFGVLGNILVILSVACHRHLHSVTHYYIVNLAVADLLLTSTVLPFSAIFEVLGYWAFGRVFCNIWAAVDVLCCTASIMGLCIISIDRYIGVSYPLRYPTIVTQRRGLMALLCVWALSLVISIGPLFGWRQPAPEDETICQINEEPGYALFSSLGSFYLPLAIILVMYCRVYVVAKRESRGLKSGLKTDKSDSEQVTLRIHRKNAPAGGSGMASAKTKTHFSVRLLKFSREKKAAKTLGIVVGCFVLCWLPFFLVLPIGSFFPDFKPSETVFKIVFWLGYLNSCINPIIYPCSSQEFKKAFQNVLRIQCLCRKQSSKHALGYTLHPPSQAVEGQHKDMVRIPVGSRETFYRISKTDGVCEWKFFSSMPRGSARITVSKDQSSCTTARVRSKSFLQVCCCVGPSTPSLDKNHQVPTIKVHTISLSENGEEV

Row | Compound | EC50 [1] [nM] | Ca2+ imaging (GCaMP6f) in transfected HEK293T cells, saturating concentration [2]
1 | CS(=O)(=O)Nc1c(O)ccc2c1CCCC2C1=NCCN1 (centres unmarked) [A61603] | ~10 | 
2 | CNC[C@H](O)c1ccc(O)c(O)c1 [epinephrine] |  | This triple mutant was still functional in response to epinephrine
